Consider six molecules from article PMC8650031, “Santin and cirsimaritin from Betula pubescens and Betula pendula buds induce apoptosis in human digestive system cancer cells” (Journal of Cellular and Molecular Medicine, 2021).

Assay [1] concerns HepG2 cells. In words: Colony formation assay, HepG2. Format: cell-based, human. Particulars: HepG2, 12.5 μM, 48 h treatment then 7 days culture. How it is done:
(§1) 2.5. Colony formation assay
(§2) In total, 250 cells were plated in each well of 12-well plates and allowed to adhere for 24 h.
(§3) Cells were treated with various concentrations of flavonoids (3.125, 6.25, 12.5, 25, 50 and 100 μM) for 48 h. Medium was discarded and fresh medium was added. After seven days, culture medium was removed and cells were washed once with PBS. Then, cells were fixed with 4% formaldehyde and stained with 0.1% crystal violet. […]

For assay [2], the system named is DLD‐1 cells. In words: Colony formation assay, DLD-1. The assay is classed as cell-based, human. Particulars: DLD-1, 12.5 μM, 48 h treatment then 7 days culture. Here is the method: as §1, §2, §3
Assay [3] has as its system DLD‐1 cells. In words: [3H]-thymidine incorporation (DNA biosynthesis), DLD-1. The conditions noted are these: DLD-1, 50 μM, 48 h. The assay is classed as cell-based, human. How it is done:
(§4) Cells were plated in 24‐well plates at 4 × 10^4 cells per well and allowed to adhere for 24 h. Cells were treated with the various concentrations of flavonoids (25, 50 and 100 μM) in 1 mL medium containing 0.5 μCi [^3H]‐thymidine (#MT6037, Hartmann Analytic, Germany) for 48 h. Medium was discarded, and cells were rinsed three times with phosphate buffered saline (PBS), and solubilized with 1 mL of 0.1 M sodium hydroxide containing 1% sodium dodecyl sulphate. Then, 9 mL of scintillation liquid (PerkinElmer, USA) was added, and radioactivity incorporated into DNA was measured using a scintillation counter.

The test system of assay [4] is DLD‐1 cells. In words: Annexin V/propidium iodide apoptosis assay, DLD-1. Format: cell-based, human. The conditions noted are these: DLD-1, 50 μM, 48 h. How it is done:
(§5) Cells were seeded at a density of 1 × 10^5 cells per well in 6-well plates and allowed to adhere for 24 h. Cells were treated with various concentrations of flavonoids (12.5, 25, 50 and 100 μM) for 48 h. Floating and adherent cells were collected and assayed using a Dead Cell Apoptosis Kit with annexin V-fluorescein isothiocyanate (FITC) and propidium iodide (PI), for flow cytometry (#V13242, Thermo Fisher Scientific, USA), according to the manufacturer’s protocol. Briefly, cells were dispersed in 100 μL annexin-binding buffer containing 5 μL annexin V-FITC conjugate solution, 1 μg/mL PI and 1 μg/mL Hoechst 33342, and incubated for 15 min at room temperature. Then 400 μL of annexin-binding buffer was added, and the cell suspension was transferred to 96-well plates and visualised using fluorescence microscopy on a BD Pathway 855 system (Becton Dickinson, USA). Early […]
(§6) red and blue fluorescence. […]

Assay [5] has as its system normal human skin fibroblasts (CCD25Sk). In words: MTT cell viability assay, normal fibroblasts. Format: cell-based. Particulars: Skin fibroblast. How it is done: (§7) Viability of cells was determined using the MTT assay. Cells were plated in 96‐well plates at 1 × 10^4 cells per well and allowed to adhere for 24 h. […] MTT (3‐(4,5‐Dimethyl‐2‐thiazolyl)‐2,5‐diphenyl‐2H‐tetrazolium bromide, Sigma‐Aldrich, USA) solution was added to each well, and cells were incubated at 37°C for 4 h. The medium was then removed, and formazan crystals were dissolved in 100 μL of DMSO and 12.5 μL of Sorensen's glycine buffer on a plate shaker. Absorbance was measured at 570 nm using a microplate reader. IC50 values were calculated using GraphPad Prism software.

The subject of a further assay is p53 in DLD‐1 cells. In words: p53 expression by Western blot and fluorescence microscopy, DLD-1. The assay is classed as cell-based, human. Particulars: DLD-1, 48 h treatment. Here is the method: (§8) Cells were seeded at a density of 1 × 10^5 cells per well in 6-well plates and allowed to adhere for 24 h. Cells were treated with various concentrations of flavonoids (12.5, 25, 50 and 100 […]
(§9) Adherent and floating cells were harvested and sonicated. Obtained homogenates were supplemented with 1% protease and phosphatase inhibitor cocktail (#78440, Thermo Fisher Scientific, USA). A Lowry assay was performed to quantify protein content in the homogenates. Proteins (20–40 μg) were resolved on 7.5%, 10% or 12% SDS-PAGE gels using the Mini-Protean Tetra system (Bio-Rad, USA). Proteins were transferred to nitrocellulose membranes (Bio-Rad, USA) using the Mini Trans-Blot Cell wet blotting system (Bio-Rad, USA). Membranes were blocked with 5% skim milk for 1 hour at room temperature and probed overnight at 4 °C with primary antibodies. The following antibodies […]
(§10) 1:1000), purchased from Cell Signaling Technology (USA); anti-p53 antibody (#sc-126, […]
(§11) 1:500) obtained from Santa Cruz Biotechnology (USA); and anti-actin antibody (#A2066, 1:2000) purchased from Sigma-Aldrich (USA). After extensive washes, a secondary antibody solution in 5% skim milk (anti-mouse IgG-HRP, Sigma-Aldrich, #A9044, 1:5000; anti-rabbit IgG-HRP, Sigma-Aldrich, #A9169, 1:5000) was added for 1 h at room temperature.
(§12) Membranes were incubated with ECL-HRP substrate (GE Healthcare, USA) and the signal was detected using the BioSpectrum Imaging System (Ultra-Violet Products, Ltd., UK).
(§13) 2.8. Immunofluorescence microscopy
(§14) Cells were plated in 96-well plates at 1 × 10^4 cells per well and allowed to adhere for 24 h.
(§15) Cells were treated with the respective concentration of flavonoids and incubated for 48 h. […]
(§16) The mass spectrometric detector was calibrated by analyzing flavonoid solutions in the concentration range 0.06‒2.0 mg/ml in the mode of selective monitoring of the most intense ions (M+ ‒ CH3) in the spectra of TMS derivatives of the determined components (Table S1).

Another assay concerns p53 in AGS cells. Nature of the assay: p53 expression by Western blot and fluorescence microscopy, AGS. Format: cell-based, human. The conditions noted are these: 48 h treatment. How it is done: as §8, §9, §10, §11, §12, §13, §14, §15, §16
For assay [6], the system named is hepatocellular carcinoma HepG2 cells. In words: MTT cell viability assay, HepG2 cells. Format: cell-based, human. The conditions noted are these: for IC50: Homo sapiens, MTT; for reduction in viability: HepG2, 100 μM. How it is done: as §7
In assay [7] the test system is HepG2 cells. Nature of the assay: [3H]-thymidine incorporation (DNA biosynthesis), HepG2. The assay is classed as cell-based, human. Particulars: HepG2, 50 μM, 48 h. How it is done: as §4
Assay [8] relates to gastric adenocarcinoma AGS cells. Nature of the assay: MTT cell viability assay, AGS cells. The assay is classed as cell-based, human. Particulars: for IC50: Homo sapiens, MTT; for reduction in viability: 100 μM. How it is done: as §7
Assay [9] concerns AGS cells. In words: Annexin V/propidium iodide apoptosis assay, AGS. Format: cell-based, human. The conditions noted are these: 50 μM, 48 h. Here is the method: as §5, §6
Assay [10] relates to colorectal adenocarcinoma DLD‐1 cells. In words: MTT cell viability assay, DLD-1 cells. The assay is classed as cell-based, human. The conditions noted are these: for IC50: Homo sapiens, MTT; for reduction in viability: DLD-1, 100 μM. Here is the method:
as §7

Assay [11] has as its system AGS cells. Nature of the assay: [3H]-thymidine incorporation (DNA biosynthesis), AGS. Format: cell-based, human. Particulars: 50 μM, 48 h. How it is done:
as §4

In the next assay the test system is p53 in HepG2 cells. Nature of the assay: p53 expression by Western blot and fluorescence microscopy, HepG2. Particulars: HepG2, 48 h treatment. The assay is classed as cell-based, human. Here is the method:
as §8, §9, §10, §11, §12, §13, §14, §15, §16

Assay [12] relates to HepG2 cells. In words: Annexin V/propidium iodide apoptosis assay, HepG2. Format: cell-based, human. Particulars: HepG2, 50 μM, 48 h. Here is the method:
as §5, §6

Assay [13] concerns AGS cells. Nature of the assay: Colony formation assay, AGS. Format: cell-based, human. Particulars: 12.5 μM, 48 h treatment then 7 days culture. How it is done:
as §1, §2, §3

SMILES strings stand for the structures.

Regarding `O=c1cc(-c2ccc(O)cc2)oc2cc(O)cc(O)c12` [apigenin, reference compound], the “decrease in number of colonies” value with HepG2 cells [1] came out at 61.8%; in the assay on DLD‐1 cells [2], 23.5%; in the assay on AGS cells [13], 13.2%. In addition, the “reduction of [3H]-thymidine incorporation” value with DLD‐1 cells [3] is recorded as 17.7%; in the assay with HepG2 cells [7], 85.4%; in the assay on AGS cells [11] it was 56.2%. The entries for the “percentage of cells in the early stage of apoptosis” value with DLD‐1 cells [4], in the assay with AGS cells [9] and in the assay on HepG2 cells [12] were 29.7%, 71.2% and 20.5%, respectively. Further, the figures for the “percentage of cells in the late stage of apoptosis” value with DLD‐1 cells [4], in the assay on AGS cells [9] and in the assay on HepG2 cells [12] were 9.4%, 9.6% and 12.3%, respectively. Further, the IC50 in assay [5] (24 h) is more than 50 µM; in assay [5] (48 h), more than 50 µM; in assay [5] (72 h), more than 50 µM; in [6] (HepG2, 24 h) it was more than 50 µM; in assay [6] (HepG2, 48 h) it was more than 50 µM; in assay [6] (HepG2, 72 h), 37.9 ± 2.9 µM. The IC50 is more than 50 µM in assay [8] (24 h); 18.2 ± 1.3 µM in assay [8] (48 h); 23.4 ± 1.4 µM in assay [8] (72 h); more than 50 µM in [10] (DLD-1, 24 h); 43.6 ± 2 µM in assay [10] (DLD-1, 48 h); more than 50 µM in [10] (DLD-1, 72 h). For the same molecule, the p53 level result in the assay on p53 in DLD‐1 cells, with p53 in AGS cells and with p53 in HepG2 cells was “up‐regulated” each time.
`COc1ccc(-c2cc(=O)c3c(O)cc(OC)cc3o2)cc1` [apigenin−7,4'‐O‐dimethyl ether, apigenin 7,4'‐O‐dimethyl ether]: the IC50 in [5] (24 h) was 23.6 ± 2.2 µM; in [5] (48 h), 12.9 ± 0.5 µM; in [5] (72 h), 19.7 ± 1.3 µM.
In the case of `COc1cc2oc(-c3ccc(O)cc3)cc(=O)c2c(O)c1OC` [cirsimaritin], the “reduction of [3H]-thymidine incorporation” value with DLD‐1 cells [3] was determined as 10.0%; in the assay on HepG2 cells [7], 53.6%; in the assay with AGS cells [11], 24.5%. Further, the figures for the “percentage of cells in the early stage of apoptosis” value with DLD‐1 cells [4], in the assay with AGS cells [9] and in the assay on HepG2 cells [12] were 51.5%, 37.0% and 51.2%, respectively. For the same molecule, the “percentage of cells in the late stage of apoptosis” value with DLD‐1 cells [4] was 15.5%; with AGS cells [9], 7.4%; in the assay with HepG2 cells [12], 5.4%. The IC50 in assay [5] (24 h) is more than 50 µM; in assay [5] (48 h) it was more than 50 µM; in [5] (72 h) it was more than 50 µM; in assay [8] (48 h), 31.7 ± 2.4 µM; in assay [8] (72 h), 17.1 ± 1.4 µM. In addition, the values for the p53 level entry in the assay with p53 in DLD‐1 cells, with p53 in AGS cells and in the assay on p53 in HepG2 cells were “decreased”, “increased significantly” and “increased significantly”, respectively. Further, in the assay with AGS cells [13], the “decrease in number of colonies” value came out at 75.7%.
Take `COc1ccc(-c2oc3cc(O)cc(O)c3c(=O)c2OC)cc1` [ermanin]: the entries for the “reduction of [3H]-thymidine incorporation” value with DLD‐1 cells [3], in the assay on HepG2 cells [7] and in the assay on AGS cells [11] were 29.1%, 85.2% and 28.2%, respectively. Besides, the reduction in viability result in [6] (48 h), in [6] (72 h), in assay [8] (48 h), in assay [8] (72 h), in assay [10] (48 h) and in [10] (72 h) was “over 80%” throughout. The IC50 in assay [8] (48 h) worked out at 49.3 ± 3.3 µM; in assay [8] (72 h), 44.5 ± 3.1 µM; in assay [10] (DLD-1, 48 h), 49.3 ± 2.5 µM.
`COc1cc(O)c2c(=O)c(OC)c(-c3ccc(O)cc3)oc2c1` [kumatakenin] showed an IC50 in assay [5] (72 h) of 41.6 ± 3.5 µM.
With `O=c1c(O)c(-c2ccc(O)c(O)c2)oc2cc(O)cc(O)c12` [quercetin], the IC50 in assay [8] (72 h) came to 28.4 ± 2.5 µM.
